Experimental data from patent publication US12077503B2, “Substituted cyclic amides and their use as herbicides” (FMC CORPORATION, priority 2015, dated 2024).

Assays:
Format in all cases: in vivo
[1] = system: giant foxtail (Setaria faberii); assay: Test A postemergence; conditions: Setaria faberi, post-emergence, 240 h
Outline: (§1)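 Ratings of 0 (no effect) to 100 (complete control) come from visual comparison with untreated controls roughly 10 d after treatment. Test chemicals, formulated in a non-phytotoxic solvent mixture with surfactant, were applied either as a preemergence directed soil spray on seeded soil or postemergence to one- to two-leaf plants 2 to 10 cm tall.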

corn (Zea mays) = assay: Test A postemergence; conditions: Zea mays, post-emergence, 240 h
Outline: as §1

[2] = system: barnyardgrass (Echinochloa crus-galli); assay: Test A postemergence; conditions: Echinochloa crus-galli, post-emergence, 240 h
Outline: as §1

[3] = system: ragweed (common ragweed, Ambrosia elatior); assay: Test A postemergence; conditions: Ambrosia artemisiifolia, post-emergence, 240 h
Outline: as §1

[4] = system: ryegrass, Italian (Italian ryegrass, Lolium multiflorum); assay: Test A postemergence; conditions: Lolium multiflorum, post-emergence, 240 h
Outline: as §1

Kochia (Kochia scoparia) [5] = assay: Test A postemergence; conditions: Bassia scoparia, post-emergence, 240 h
Outline: as §1

[6] = system: pigweed (Amaranthus retroflexus); assay: Test A postemergence; conditions: Amaranthus retroflexus, post-emergence, 240 h
Outline: as §1

[7] = system: Galium (catchweed bedstraw, Galium aparine); assay: Test A postemergence; conditions: Galium, post-emergence, 240 h
Outline: as §1

[8] = system: wheat (Triticum aestivum); assay: Test A postemergence; conditions: Triticum aestivum, post-emergence, 240 h
Outline: as §1

[9] = system: giant foxtail (Setaria faberii); assay: Test A preemergence; conditions: Setaria faberi, pre-emergence, 240 h, preemergence, 0 to 100 scale where 0 is no effect and 100 is complete control, read-out: Foxtail, Giant plant response rating
Outline: as §1

[10] = system: barnyardgrass (Echinochloa crus-galli); assay: Test A preemergence; conditions: Echinochloa crus-galli, pre-emergence, 240 h, preemergence, 0 to 100 scale where 0 is no effect and 100 is complete control, read-out: Barnyardgrass plant response rating
Outline: as §1

[11] = system: ragweed (common ragweed, Ambrosia elatior); assay: Test A preemergence; conditions: Ambrosia artemisiifolia, pre-emergence, 240 h, preemergence, 0 to 100 scale where 0 is no effect and 100 is complete control, read-out: Ragweed plant response rating
Outline: as §1

[12] = system: ryegrass, Italian (Italian ryegrass, Lolium multiflorum); assay: Test A preemergence; conditions: Lolium multiflorum, pre-emergence, 240 h, preemergence, 0 to 100 scale where 0 is no effect and 100 is complete control, read-out: Ryegrass, Italian plant response rating
Outline: as §1

Kochia (Kochia scoparia) [13] = assay: Test A preemergence; conditions: Bassia scoparia, pre-emergence, 240 h, 500 g ai/ha, preemergence; 0 to 100 scale where 0 is no effect and 100 is complete control; read-out: Kochia plant response rating
Outline: as §1

[14] = system: pigweed (Amaranthus retroflexus); assay: Test A preemergence; conditions: Amaranthus retroflexus, pre-emergence, 240 h, preemergence, 0 to 100 scale where 0 is no effect and 100 is complete control, read-out: Pigweed plant response rating
[15] = 125 g ai/ha, visual injury rating, approximately 10 d

CSc1ccccc1NC(=O)[C@H]1C(=O)N(C)C[C@@H]1c1cccc(C(F)(F)F)c1 [Compound 1249]
50%: pest or weed control at 125 g/ha ([7]; 125 g ai/ha, postemergence, visual injury vs untreated controls after approx. 10 d, 0 = no effect, 100 = complete control, read-out: Galium plant response rating (0 to 100 scale)) | pest or weed control at 500 g/ha ([7]; Postemergence, 500 g ai/ha, visual injury, 0 to 100 scale (0 no effect, 100 complete control), approx. 10 d, read-out: Plant response rating, Galium) | plant injury at 125 g/ha ([8]; 125 g ai/ha, postemergence, visual injury vs untreated controls after approx. 10 d, 0 = no effect, 100 = complete control, read-out: Wheat plant response rating (0 to 100 scale))
60%: pest or weed control at 500 g/ha ([3]; Postemergence, 500 g ai/ha, visual injury, 0 to 100 scale (0 no effect, 100 complete control), approx. 10 d, read-out: Plant response rating, Ragweed)
30%: pest or weed control at 125 g/ha ([4]; 125 g ai/ha, postemergence, visual injury vs untreated controls after approx. 10 d, 0 = no effect, 100 = complete control, read-out: Ryegrass, Italian plant response rating (0 to 100 scale)) | pest or weed control at 125 g/ha ([6]; 125 g ai/ha, postemergence, visual injury vs untreated controls after approx. 10 d, 0 = no effect, 100 = complete control, read-out: Pigweed plant response rating (0 to 100 scale)) | pest or weed control at 125 g/ha [11, 15] | pest or weed control at 125 g/ha [12, 15]
70%: plant injury at 125 g/ha (corn (Zea mays); 125 g ai/ha, postemergence, visual injury vs untreated controls after approx. 10 d, 0 = no effect, 100 = complete control, read-out: Corn plant response rating (0 to 100 scale)) | pest or weed control at 500 g/ha ([4]; Postemergence, 500 g ai/ha, visual injury, 0 to 100 scale (0 no effect, 100 complete control), approx. 10 d, read-out: Plant response rating, Ryegrass, Italian) | pest or weed control at 500 g/ha (Kochia (Kochia scoparia) [5]; Postemergence, 500 g ai/ha, visual injury, 0 to 100 scale (0 no effect, 100 complete control), approx. 10 d, read-out: Plant response rating, Kochia) | plant injury at 500 g/ha ([8]; Postemergence, 500 g ai/ha, visual injury, 0 to 100 scale (0 no effect, 100 complete control), approx. 10 d, read-out: Plant response rating, Wheat) | pest or weed control at 500 g/ha ([11]; 500 g ai/ha)
100%: pest or weed control at 125 g/ha ([2]; 125 g ai/ha, postemergence, visual injury vs untreated controls after approx. 10 d, 0 = no effect, 100 = complete control, read-out: Barnyardgrass plant response rating (0 to 100 scale)) | pest or weed control at 500 g/ha ([2]; Postemergence, 500 g ai/ha, visual injury, 0 to 100 scale (0 no effect, 100 complete control), approx. 10 d, read-out: Plant response rating, Barnyardgrass) | pest or weed control at 125 g/ha [9, 15] | pest or weed control at 500 g/ha ([9]; 500 g ai/ha) | pest or weed control at 125 g/ha [10, 15] | pest or weed control at 500 g/ha ([10]; 500 g ai/ha) | pest or weed control at 500 g/ha ([12]; 500 g ai/ha)
80%: pest or weed control at 125 g/ha ([1]; 125 g ai/ha, postemergence, visual injury vs untreated controls after approx. 10 d, 0 = no effect, 100 = complete control, read-out: Foxtail, Giant plant response rating (0 to 100 scale)) | pest or weed control at 500 g/ha ([1]; Postemergence, 500 g ai/ha, visual injury, 0 to 100 scale (0 no effect, 100 complete control), approx. 10 d, read-out: Plant response rating, Foxtail, Giant) | pest or weed control at 500 g/ha ([6]; Postemergence, 500 g ai/ha, visual injury, 0 to 100 scale (0 no effect, 100 complete control), approx. 10 d, read-out: Plant response rating, Pigweed) | pest or weed control at 125 g/ha [14, 15]
90%: Corn plant response rating (crop injury, 0 = no effect, 100 = complete kill) at 500 g/ha (corn (Zea mays); Postemergence, 500 g ai/ha, visual injury, 0 to 100 scale (0 no effect, 100 complete control), approx. 10 d) | pest or weed control at 500 g/ha (Kochia (Kochia scoparia) [13]) | pest or weed control at 500 g/ha ([14]; 500 g ai/ha)
40%: pest or weed control at 125 g/ha (Kochia (Kochia scoparia) [5]; 125 g ai/ha, postemergence, visual injury vs untreated controls after approx. 10 d, 0 = no effect, 100 = complete control, read-out: Kochia plant response rating (0 to 100 scale))
0%: pest or weed control at 125 g/ha ([3]; 125 g ai/ha, postemergence, visual injury vs untreated controls after approx. 10 d, 0 = no effect, 100 = complete control, read-out: Ragweed plant response rating (0 to 100 scale))
